For experiment [1], the system named is Spt7 bromodomain (residues 363–619). The experiment in a line: SPR binding of H3 peptides to immobilized Spt7 bromodomain. Particulars: for Binding to Spt7 bromodomain: SPR, Biacore T100/T200, 25°C, peptides 1-200 µM in HBS-P+, NTA chip-captured His-tagged bromodomain, 1:1 model, Figure 6A, n = 2–11. On the set-up: species or system yeast. From the text:
(§1) We developed a second assay that involves monitoring the effect of the P16V substitution on the binding of the Spt7 bromodomain to an H3 peptide modified by acetylation at K14 and/or K18 using surface plasmon resonance (SPR) (Figures 6A, S4A, and S4B) or by pull downs (Figures 6B and S4C). Bromodomains are acetyl-lysine binding domains, found in a number of chromatin-associated proteins ([Taverna et al., 2007]) including Spt7. The function and binding specificity of the Spt7 bromodomain are currently unknown, but it preferentially interacts with hyperacetylated histones in vitro ([Hassan et al., 2007]). […] The binding of the Spt7 bromodomain to the P16V-substituted K18ac peptide improved binding by ∼2-fold. […] We reasoned that this could reflect an effect of the side chain on binding or an influence on the conformation of the A15-P16 bond. […] The corollary of this is that acetylation of K14 would correlate with the A15-P16 bond in the trans configuration, supporting ideas that the peptidyl-prolyl bond conformation is mainly determined by local effects in proteins ([Reimer et al., 1998]).
(§2) Figure 6 K14ac Promotes P16trans (A) Relative binding ± SEM (n = 2–11) assessed by surface plasmon resonance of purified recombinant Spt7 bromodomain (residues 363–619) to the indicated H3 peptides (11–26). (B) Coomassie-stained gel showing a pull-down experiment, quantified relative to the K18ac peptide, with the indicated H3 peptides and the purified recombinant Spt7 bromodomain (n = 3). (C) A chymotrypsin-coupled assay for proline isomers using synthetic hexamers based on GGKAPF-pNA (unmodified). pNA is released by chymotrypsin cleavage only from the trans-proline-containing peptide. (D) K14ac and substitutions at K14 influence isomerization at A15-P16 and pNA release, expressed as mean initial rate ± SEM (n = 4–5) over the first 0.6–10.2 s of the reaction. (E) Schematic showing how K14ac or the K14R substitution influence A15-P16 conformation. (F) Schematic showing how dynamic K14ac influences A15-P16 conformation and K4me3 (K4 and K14 denote that these residues are not trimethylated or acetylated respectively). (G) The balance of positive-acting factors (right panel) and negative-acting factors (left panel) controls levels of K4me3 at individual genes. […] See also Figure S4. […]
(n=5771) with the ratios of H3-normalised K4me3 in the K14A and P16V strains relative to the WT strain. Genes with ratios > 2 (n = 7 and 4 for K14A/WT and P16V/WT respectively) have been removed for clarity. Highlighted are the genes with the 200 highest and lowest ratios selected for further analysis (K14/P16-independent and K14/P16-dependent gene classes respectively). (C) Overlap (%) between the four selected gene classes from Figure S3B and the genes temporally expressed during the yeast metabolic cycle (YMC: OX, oxidative; R/B, reductive building; R/C, reductive charging phase), induced/repressed by the environmental stress response (ESR), classed as ribosomal protein genes (RPGs) or ribosome biogenesis genes (Ribis), or regulated predominantly by SAGA or TFIID. […]
YMC and ESR expression data were taken from (Tu et al., 2005) and (Gasch et al., 2000) respectively. SAGA/TFIID-regulated genes were obtained from (Huisinga and Pugh, […]
Figure S4. (Related to Figure 6)
(A) Surface plasmon resonance (SPR) affinity fits for the indicated H3 peptides encompassing residues 11-26 binding to the Spt7 bromodomain (residues 363-619). Also shown is a typical sensorgram of H3 peptide binding to the Spt7 bromodomain […]
values ± SEM for Spt7 binding to variously-modified H3 peptides. (C) A peptide pull-down experiment with a range of H3 peptides and the WT or substituted Spt7 bromodomain […]
Peptides for bromodomain interaction studies
Peptides were synthesized at GL Biochem (Shanghai) LTD, China and Proteogenix, France.
(§3) Purity was determined with MALDI-TOF mass spectrometry and HPLC and the peptides used […]
The peptide sequences are listed in the […]
In general terms: SPR reads the build-up and loss of mass on a sensor chip optically.

For experiment [2] the test system is unchanged. Nature of the experiment: Peptide pull-down with Spt7 bromodomain. Format: binding, yeast. Particulars: SulfoLink resin, bromodomain 30 µg/ml, 2 h at 4°C, Coomassie gel, relative to K18ac peptide, Figure 6B, n = 3.
From the text: as §1, §2
(n=5771) with the ratios of H3-normalised K4me3 in the K14A and P16V strains relative to the WT strain. Genes with ratios > 2 (n = 7 and 4 for K14A/WT and P16V/WT respectively) have been removed for clarity. Highlighted are the genes with the 200 highest and lowest ratios selected for further analysis (K14/P16-independent and K14/P16-dependent gene classes respectively). […]
as §3

The target in experiment [3] is T1, Spt7 bromodomain (residues 363–619) (UniProt P35177 363-619).
T1 construct: Spt7, bromodomain construct, amino acids 363-619; also called purified recombinant Spt7 bromodomain; source: recombinant, expressed and purified as described (Boubriak et al., 2009)
T1 sequence (looked up): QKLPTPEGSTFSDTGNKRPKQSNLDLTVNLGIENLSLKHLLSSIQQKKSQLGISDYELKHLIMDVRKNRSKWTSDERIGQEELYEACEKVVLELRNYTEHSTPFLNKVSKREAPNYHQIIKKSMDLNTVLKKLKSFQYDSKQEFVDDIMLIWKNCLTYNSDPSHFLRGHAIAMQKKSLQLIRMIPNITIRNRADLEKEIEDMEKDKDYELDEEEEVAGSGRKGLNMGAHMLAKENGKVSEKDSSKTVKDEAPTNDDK
The experiment in a line: SPR; peptides binding to immobilized Spt7 bromodomain; Biacore T100 and T200, 25°C; 1:1 binding model; relative binding. Particulars: both partners purified.

Ends that are not written are not given here.

On to “TGGRAVR(Kac)QLASKAARC [valine substitution at P16 in the K14R-K18ac peptide]”, for which, in experiment [1], the “Binding to Spt7 bromodomain” value was “restored binding at levels between the P16V-K18ac and K18ac peptides”.
Same read-out and setting: under “TGGRAPR(Kac)QLASKAARC [K14R-K18ac, H3 peptide (11–26), K14R, acetylated K18]” stands “no binding was observed”; under “TGG(Kac)APR(Kac)QLASKAARC [peptide acetylated at both K14 and K18]”, “binding to the Spt7 bromodomain similar to the P16V-K18ac peptide”.
Turning to “TGG(Kac)APRKQLASKAARC [peptide acetylated at K14, H3 peptide (11–26) acetylated at K14, for bromodomain studies]”, the “Binding to Spt7 bromodomain” value in experiment [1] and in experiment [2] was “lack of binding” throughout.
With “TGGKAVR(Kac)QLASKAARC [P16V-K18ac, H3 peptide (11–26), P16V, acetylated K18]”, the “Improvement of binding to Spt7 bromodomain on P16V substitution” value in experiment [1] (P16V-substituted versus K18ac peptide, SPR (text does not say whether SPR or pull-down), 25°C) is on record as approximately 2 fold.
Consider “TGGKAPRKQLASKAARC [unmodified H3 peptide, H3 peptide (11–26), unmodified, for bromodomain studies]”, for which the “Binding to Spt7 bromodomain” value in experiment [1] and in experiment [2] was “lack of binding” each time.

B1: K14R-K18ac H3 peptide (11–26) with a valine substitution at P16 (peptide, UniProt P61830 12-27, looked up)
peptide: TGGRAVRK(Ac)QLASKAAR
notes: histone H3, residues 11-26; also called K14R-P16V-K18ac peptide; source: synthetic peptide (GL Biochem and Proteogenix)
In the case of B1, the binding result in experiment [3] was “binds”.

B2: P16V-substituted K18ac H3 peptide (11–26) (peptide, UniProt P61830 12-27, looked up)
peptide: TGGKAVRK(Ac)QLASKAAR
notes: histone H3, residues 11-26; also called P16V-K18ac peptide; P16V-K18ac; source: synthetic peptide (GL Biochem and Proteogenix)
On to B2, for which the “fold change of binding against the K18ac peptide” value in experiment [3] is approximately 2 fold.
